From patent publication US8987195B2 (priority 2012, dated 2015) come the findings set out here.

Like-named read-outs stand apart in the source and are kept apart here.

Assay [1] concerns the target HCV NS3/4A protease genotype 1b (Hepatitis C virus genotype 1b, UniProt P26663). Put plainly: HCV NS3/4A protease time-resolved fluorescence (TRF) assay, Ki against genotype 1b. Format: biochemical. To be noted: IC50 [gt-1b] (nM), NS3/4A genotype 1b, enzyme 0.2 nM. Summed up: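 NS3/4A enzyme was preincubated 30 min with inhibitor in 50 mM HEPES pH 7.5, 150 mM NaCl, 15% glycerol, 0.15% Triton X-100, 10 mM DTT, 0.1% PEG 8000; 25 nM europium TRF peptide substrate added, 2.5 h at room temperature. Enzyme: 0.2 nM (1b), 0.4 nM (A156T), 0.025 nM (3a). Ki from IC50 via Cheng-Prusoff.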

In the next assay the test system is HCV genotype 1b replicon. Put plainly: HCV replicon assay, genotype 1b replicon EC50. The assay is classed as cell-based, Hepatitis C virus. Conditions: genotype 1b replicon, read-out: EC50 [gt-1b]. Summed up:
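Replicon cells (Neo^r, some luciferase:Neo^r fusion); G418 removed at plating; compound dilution series, 24-48 h. Readout: RNA by 32P-probe hybridization/protection or TaqMan, normalized to cyclophilin A RNA, or luciferase. EC50 vs DMSO control, 4-parameter fit.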
In general terms: Replicon systems follow genome replication, usually without infectious particles.

`Cc1nc2ccccc2c2c1O[C@]1(CC2)C[C@H]2C(=O)N[C@]3(C(=O)NS(=O)(=O)C4(C)CC4)C[C@H]3/C=C\CCCCC[C@H](NC(=O)OC(C)C(F)(F)F)C(=O)N2C1` (stereo partly drawn) [Example 240, 1,1,1-trifluoropropan-2-yl [(2R,6S,12Z,13aS,14aR,16aS)-5′-methyl-14a-{[(1-methylcyclopropyl)sulfonyl]carbamoyl}-5,16-dioxo-1,1′,2′,5,6,7,8,9,10,11,13a,14,14a,15,16,16a-hexadecahydrospiro[cyclopropa[e]pyrrolo[1,2-a][1,4]diazacyclopentadecine-2,3′-pyrano[2,3-c]quinolin]-6-yl]carbamate]: the IC50 in assay [1] is 0.01 nM. The concentration for a half-maximal effect (EC50) with HCV genotype 1b replicon is 2.65 nM.

Compound `Cc1nc2ccccc2c2c1O[C@]1(CC2)C[C@H]2C(=O)N[C@]3(C(=O)NS(=O)(=O)C4(C)CC4)C[C@H]3/C=C\CCCCC[C@H](NC(=O)OC(C)C(F)(F)F)C(=O)N2C1` (stereo partly drawn) [Example 241, 1,1,1-trifluoropropan-2-yl [(2R,6S,12Z,13aS,14aR,16aS)-5′-methyl-14a-{[(1-methylcyclopropyl)sulfonyl]carbamoyl}-5,16-dioxo-1,1′,2′,5,6,7,8,9,10,11,13a,14,14a,15,16,16a-hexadecahydrospiro[cyclopropa[e]pyrrolo[1,2-a][1,4]diazacyclopentadecine-2,3′-pyrano[2,3-c]quinolin]-6-yl]carbamate] yielded an IC50 in assay [1] of 0.012 nM. Besides, the EC50 in the assay on HCV genotype 1b replicon amounted to 2.9 nM.

Regarding `COCC(C)(C)OC(=O)N[C@H]1CCCCC/C=C\[C@@H]2C[C@@]2(C(=O)NS(=O)(=O)C2(C)CC2)NC(=O)[C@@H]2C[C@@]3(CN2C1=O)CC(F)(F)c1c(c(C(C)C)nc2ccc(OC)cc12)O3` [Example 242, 1-methoxy-2-methylpropan-2-yl [(2S,6S,12Z,13aS,14aR,16aS)-1′,1′-difluoro-9′-methoxy-14a-{[(1-methylcyclopropyl)sulfonyl]carbamoyl}-5,16-dioxo-5′-(propan-2-yl)-1,1′,2′,5,6,7,8,9,10,11,13a,14,14a,15,16,16a-hexadecahydrospiro[cyclopropa[e]pyrrolo[1,2-a][1,4]diazacyclopentadecine-2,3′-pyrano[2,3-c]quinolin]-6-yl]carbamate], the midpoint of inhibition in assay [1], the IC50, lay at 0.022 nM. For the same compound, in the assay with HCV genotype 1b replicon (Hepatitis C virus), the EC50 is 3.38 nM.

With `COc1ccc2nc(C(C)C)c3c(c2c1)CC[C@]1(C[C@H]2C(=O)N[C@]4(C(=O)NS(=O)(=O)C5(C)CC5)C[C@H]4/C=C\CCCCC[C@H](NC(=O)OC(C)(C)CCS(C)(=O)=O)C(=O)N2C1)O3` [Example 243, 2-methyl-4-(methylsulfonyl)butan-2-yl [(2R,6S,12Z,13aS,14aR,16aS)-9′-methoxy-14a-{[(1-methylcyclopropyl)sulfonyl]carbamoyl}-5,16-dioxo-5′-(propan-2-yl)-1,1′,2′,5,6,7,8,9,10,11,13a,14,14a,15,16,16a-hexadecahydrospiro[cyclopropa[e]pyrrolo[1,2-a][1,4]diazacyclopentadecine-2,3′-pyrano[2,3-c]quinolin]-6-yl]carbamate], the IC50 in assay [1] (K+ salt) was determined as 0.012 nM. For the same compound, in the assay with HCV genotype 1b replicon (Hepatitis C virus, K+ salt), the concentration for a half-maximal effect (EC50) was found to be 43 nM.

`COCCC(C)(C)OC(=O)N[C@H]1CCCCC/C=C\[C@@H]2C[C@@]2(C(=O)NS(=O)(=O)C2(C)CC2)NC(=O)[C@@H]2C[C@@]3(CN2C1=O)CC(F)(F)c1c(c(C(C)C)nc2ccc(OC)cc12)O3` [Example 244, 4-methoxy-2-methylbutan-2-yl [(2S,6S,12Z,13aS,14aR,16aS)-1′,1′-difluoro-9′-methoxy-14a-{[(1-methylcyclopropyl)sulfonyl]carbamoyl}-5,16-dioxo-5′-(propan-2-yl)-1,1′,2′,5,6,7,8,9,10,11,13a,14,14a,15,16,16a-hexadecahydrospiro[cyclopropa[e]pyrrolo[1,2-a][1,4]diazacyclopentadecine-2,3′-pyrano[2,3-c]quinolin]-6-yl]carbamate]: the IC50 in assay [1] was 0.008 nM. Besides, the 50% effective concentration (EC50) in the assay with HCV genotype 1b replicon (Hepatitis C virus) came to 2.89 nM.

For the compound `COc1ccc2nc(C(C)C)c3c(c2c1)C(F)(F)C[C@]1(C[C@H]2C(=O)N[C@]4(C(=O)NS(=O)(=O)C5(C)CC5)C[C@H]4/C=C\CCCCC[C@H](NC(=O)OC(C)(C)CCS(C)(=O)=O)C(=O)N2C1)O3` [Example 245, 2-methyl-4-(methylsulfonyl)butan-2-yl [(2S,6S,12Z,13aS,14aR,16aS)-1′,1′-difluoro-9′-methoxy-14a-{[(1-methylcyclopropyl)sulfonyl]carbamoyl}-5,16-dioxo-5′-(propan-2-yl)-1,1′,2′,5,6,7,8,9,10,11,13a,14,14a,15,16,16a-hexadecahydrospiro[cyclopropa[e]pyrrolo[1,2-a][1,4]diazacyclopentadecine-2,3′-pyrano[2,3-c]quinolin]-6-yl]carbamate], in assay [1] (K+ salt), the half-inhibitory concentration (IC50) is 0.025 nM. Besides, in the assay on HCV genotype 1b replicon (Hepatitis C virus, K+ salt), the 50% effective concentration (EC50) was determined as 13.4 nM.

Turning to `Cc1nc2ccc(OC(F)(F)F)cc2c2c1O[C@]1(CC2)C[C@H]2C(=O)N[C@]3(C(=O)NS(=O)(=O)C4(C)CC4)C[C@H]3/C=C\CCCCC[C@H](NC(=O)N3CCCC3)C(=O)N2C1` [Example 246, (2R,6S,12Z,13aS,14aR,16aS)-5′-methyl-N-[(1-methylcyclopropyl)sulfonyl]-5,16-dioxo-6-[(pyrrolidin-1-ylcarbonyl)amino]-9′-(trifluoromethoxy)-1,1′,2′,6,7,8,9,10,11,13a,14,15,16,16a-tetradecahydrospiro[cyclopropa[e]pyrrolo[1,2-a][1,4]diazacyclopentadecine-2,3′-pyrano[2,3-c]quinoline]-14a(5H)-carboxamide], the half-maximal inhibitory concentration (IC50) in assay [1] turned out to be 0.004 nM. Further, in the assay with HCV genotype 1b replicon (Hepatitis C virus), the EC50 was found to be 17.4 nM.

For the compound `COc1ccc2nc(C3CC3)c3c(c2c1)C(F)(F)C[C@]1(C[C@H]2C(=O)N[C@]4(C(=O)NS(=O)(=O)C5(C)CC5)C[C@H]4/C=C\CCCCC[C@H](NC(=O)OCC(C)C)C(=O)N2C1)O3` [Example 248, 2-methylpropyl [(2S,6S,12Z,13aS,14aR,16aS)-5′-cyclopropyl-1′,1′-difluoro-9′-methoxy-14a-{[(1-methylcyclopropyl)sulfonyl]carbamoyl}-5,16-dioxo-1,1′,2′,5,6,7,8,9,10,11,13a,14,14a,15,16,16a-hexadecahydrospiro[cyclopropa[e]pyrrolo[1,2-a][1,4]diazacyclopentadecine-2,3′-pyrano[2,3-c]quinolin]-6-yl]carbamate], the IC50 in assay [1] (K+ salt) is 0.026 nM. Moreover, in the assay on HCV genotype 1b replicon (Hepatitis C virus, K+ salt), the 50% effective concentration (EC50) was found to be 14.7 nM.

`COc1ccc2nc(C3CC3)c3c(c2c1)C(F)(F)C[C@]1(C[C@H]2C(=O)N[C@]4(C(=O)NS(=O)(=O)C5(C)CC5)C[C@H]4/C=C\CCCCC[C@H](NC(=O)O[C@H](C)C(C)C)C(=O)N2C1)O3` [Example 249, (2R)-3-methylbutan-2-yl [(2S,6S,12Z,13aS,14aR,16aS)-5′-cyclopropyl-1′,1′-difluoro-9′-methoxy-14a-{[(1-methylcyclopropyl)sulfonyl]carbamoyl}-5,16-dioxo-1,1′,2′,5,6,7,8,9,10,11,13a,14,14a,15,16,16a-hexadecahydrospiro[cyclopropa[e]pyrrolo[1,2-a][1,4]diazacyclopentadecine-2,3′-pyrano[2,3-c]quinolin]-6-yl]carbamate]: the IC50 in assay [1] (K+ salt) is 0.02 nM. Besides, the 50% effective concentration (EC50) with HCV genotype 1b replicon (Hepatitis C virus, K+ salt) amounted to 14.6 nM.

On to `COc1ccc2nc(C3CC3)c3c(c2c1)C(F)(F)C[C@]1(C[C@H]2C(=O)N[C@]4(C(=O)NS(=O)(=O)C5(C)CC5)C[C@H]4/C=C\CCCCC[C@H](NC(=O)O[C@@H](C)C(C)C)C(=O)N2C1)O3` [Example 250, (2S)-3-methylbutan-2-yl [(2S,6S,12Z,13aS,14aR,16aS)-5′-cyclopropyl-1′,1′-difluoro-9′-methoxy-14a-{[(1-methylcyclopropyl)sulfonyl]carbamoyl}-5,16-dioxo-1,1′,2′,5,6,7,8,9,10,11,13a,14,14a,15,16,16a-hexadecahydrospiro[cyclopropa[e]pyrrolo[1,2-a][1,4]diazacyclopentadecine-2,3′-pyrano[2,3-c]quinolin]-6-yl]carbamate], for which 0.024 nM corresponded to half-maximal inhibition in assay [1] (IC50). Moreover, the concentration giving a half-maximal response (EC50) in the assay with HCV genotype 1b replicon (Hepatitis C virus) turned out to be 6.5 nM.

Regarding `Cc1nc2ccc(C(F)(F)F)cc2c2c1O[C@]1(CC2)C[C@H]2C(=O)N[C@]3(C(=O)NS(=O)(=O)C4(C)CC4)C[C@H]3/C=C\CCCCC[C@H](NC(=O)OC(C)(C)C)C(=O)N2C1` [Example 251, tert-butyl [(2R,6S,12Z,13aS,14aR,16aS)-5′-methyl-14a-{[(1-methylcyclopropyl)sulfonyl]carbamoyl}-5,16-dioxo-9′-(trifluoromethyl)-1,1′,2′,5,6,7,8,9,10,11,13a,14,14a,15,16,16a-hexadecahydrospiro[cyclopropa[e]pyrrolo[1,2-a][1,4]diazacyclopentadecine-2,3′-pyrano[2,3-c]quinolin]-6-yl]carbamate], half-maximal inhibition in assay [1] (IC50) required 0.021 nM. For the same compound, the EC50 with HCV genotype 1b replicon (Hepatitis C virus) stood at 14.3 nM.

The compound `Cc1nc2ccc(C(F)(F)F)cc2c2c1O[C@]1(CC2)C[C@H]2C(=O)N[C@]3(C(=O)NS(=O)(=O)C4(C)CC4)C[C@H]3/C=C\CCCCC[C@H](NC(=O)OC3CCCC3)C(=O)N2C1` [Example 252, cyclopentyl [(2R,6S,12Z,13aS,14aR,16aS)-5′-methyl-14a-{[(1-methylcyclopropyl)sulfonyl]carbamoyl}-5,16-dioxo-9′-(trifluoromethyl)-1,1′,2′,5,6,7,8,9,10,11,13a,14,14a,15,16,16a-hexadecahydrospiro[cyclopropa[e]pyrrolo[1,2-a][1,4]diazacyclopentadecine-2,3′-pyrano[2,3-c]quinolin]-6-yl]carbamate] returned a half-inhibitory concentration (IC50) in assay [1] of 0.01 nM. In addition, in the assay with HCV genotype 1b replicon (Hepatitis C virus), the EC50 amounted to 44.4 nM.

The term IC50 denotes the concentration needed to halve the response being measured. Usually EC50 stands for the concentration giving half of the maximal effect.
